From PMC7429544, “Influence of protein (human galectin-3) design on aspects of lectin activity” (Histochemistry and Cell Biology, 2020)

Assays:
[1] = biological target: T1, Gal-3 (full-length wild-type human galectin-3) (Homo sapiens, UniProt P17931); assay: inhibition of biotinylated lectin staining, fixed murine jejunum sections; settings: 0.5 mM Lac as part of glycocluster; labelled lectin 4 µg/mL
T1 construct: gene LGALS3; full-length with N-terminal tail (two Ser phosphorylation sites, nine collagen-like repeats) and CRD; monomeric in solution; biotinylated for tissue sections

[2] = biological target: T2, Gal-3–Gal-3 (Homo sapiens, UniProt P17931); assay: as above; settings: 0.5 mM Lac as part of glycocluster; labelled lectin 0.25 µg/mL
T2 construct: gene LGALS3; engineered covalent homodimer: two Gal-3 CRDs fused directly C- to N-terminus in one polypeptide, no tail; recombinant from bacteria

[3] = biological target: T3, Gal-3 CRD (trGal-3) (Homo sapiens, UniProt P17931); assay: isothermal titration calorimetry; assay type: binding; settings: 25 °C, pH 7.2, 20 mM phosphate, 10 mM NaCl, 2 mM β-mercaptoethanol; one-set-of-sites model; lyophilized protein
T3 construct: gene LGALS3; C-terminal carbohydrate recognition domain only, N-terminal tail proteolytically removed; recombinant from bacteria
Description: isothermal titration calorimetry on Gal-3 CRD (trGal-3)

[4] = biological target: T1, Gal-3 (full-length wild-type human galectin-3); assay: isothermal titration calorimetry; assay type: binding; settings: 25 °C, pH 7.2, 20 mM phosphate, 10 mM NaCl, 2 mM β-mercaptoethanol; one-set-of-sites model; lyophilized protein
Description: isothermal titration calorimetry on Gal-3 (full-length wild-type human galectin-3)

[5] = biological target: T4, Gal-3–8S–Gal-3 (Homo sapiens, UniProt P17931); assay: isothermal titration calorimetry; assay type: binding; settings: 25 °C, pH 7.2, 20 mM phosphate, 10 mM NaCl, 2 mM β-mercaptoethanol; one-set-of-sites model; lyophilized protein
T4 construct: gene LGALS3; engineered covalent homodimer: two Gal-3 CRDs joined by the 33-residue Gal-8S linker peptide in one polypeptide, no tail; recombinant from bacteria
Description: isothermal titration calorimetry on Gal-3–8S–Gal-3

[6] = biological target: T2, Gal-3–Gal-3; assay: isothermal titration calorimetry; assay type: binding; settings: 25 °C, pH 7.2, 20 mM phosphate, 10 mM NaCl, 2 mM β-mercaptoethanol, one-set-of-sites model, dissolved and dialyzed
Description: isothermal titration calorimetry on Gal-3–Gal-3

[7] = biological target: T5, Gal-1–Gal-3; assay: isothermal titration calorimetry; assay type: binding, Homo sapiens; settings: 25 °C, pH 7.2, 20 mM phosphate, 10 mM NaCl, 2 mM β-mercaptoethanol; one-set-of-sites model; protein precipitated, dissolved and dialyzed
T5 construct: gene LGALS1; engineered heterodimer in one polypeptide: N-terminal Gal-1 CRD fused directly to Gal-3 CRD; recombinant from bacteria
Description: isothermal titration calorimetry on Gal-1–Gal-3

[8] = biological target: T6, Gal-3–Gal-1; assay: isothermal titration calorimetry; assay type: binding, Homo sapiens; settings: 25 °C, pH 7.2, 20 mM phosphate, 10 mM NaCl, 2 mM β-mercaptoethanol; one-set-of-sites model; protein precipitated, dissolved and dialyzed
T6 construct: gene LGALS3; engineered heterodimer in one polypeptide: N-terminal Gal-3 CRD fused directly to Gal-1 CRD; recombinant from bacteria
Description: isothermal titration calorimetry on Gal-3–Gal-1

[9] = biological target: T7, Gal-3–8S–Gal-1; assay: isothermal titration calorimetry; assay type: binding, Homo sapiens; settings: 25 °C, pH 7.2, 20 mM phosphate, 10 mM NaCl, 2 mM β-mercaptoethanol; one-set-of-sites model; lyophilized protein (first of two preparations)
T7 construct: gene LGALS3; engineered heterodimer in one polypeptide: N-terminal Gal-3 CRD, 33-residue Gal-8S linker, Gal-1 CRD; recombinant from bacteria
Description: isothermal titration calorimetry on Gal-3–8S–Gal-1

[10] = biological target: T8, Gal-1–8S–Gal-3; assay: isothermal titration calorimetry; assay type: binding, Homo sapiens; settings: 25 °C, pH 7.2, 20 mM phosphate, 10 mM NaCl, 2 mM β-mercaptoethanol; one-set-of-sites model; lyophilized protein (first of two preparations)
T8 construct: gene LGALS1; engineered heterodimer in one polypeptide: N-terminal Gal-1 CRD, 33-residue Gal-8S linker, Gal-3 CRD; recombinant from bacteria
Description: isothermal titration calorimetry on Gal-1–8S–Gal-3

T1 sequence (P17931 2-250): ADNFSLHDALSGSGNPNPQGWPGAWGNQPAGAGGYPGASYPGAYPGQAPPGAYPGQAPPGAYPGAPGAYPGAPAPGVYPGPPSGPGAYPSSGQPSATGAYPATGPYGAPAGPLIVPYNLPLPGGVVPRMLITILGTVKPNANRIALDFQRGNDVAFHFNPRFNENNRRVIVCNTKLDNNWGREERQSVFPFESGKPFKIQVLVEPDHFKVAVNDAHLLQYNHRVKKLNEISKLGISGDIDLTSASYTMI
T2 sequence (P17931 114-250 limits assumed): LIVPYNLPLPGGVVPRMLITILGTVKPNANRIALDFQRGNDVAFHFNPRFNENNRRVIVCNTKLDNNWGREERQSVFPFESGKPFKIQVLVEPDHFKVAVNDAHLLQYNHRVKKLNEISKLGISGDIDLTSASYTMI
T3 sequence (P17931 114-250 limits assumed): as above
T4 sequence (P17931 114-250 limits assumed): as above

Structure (SMILES) | staining inhibition [1] | staining inhibition [2] | Kd [3] | Kd [4] | Kd [5] | Kd ([6]; protein precipitated) | Kd [7] | Kd [8] | Kd [9] | Kd ([6]; protein precipitated with ammonium sulfate) | Kd [10]
OC[C@H]1O[C@@H](O[C@H]2[C@H](O)[C@@H](O)[C@H](n3cc(COc4ccc(C(=C(c5ccc(OCc6cn([C@@H]7O[C@H](CO)[C@@H](O[C@@H]8O[C@H](CO)[C@H](O)[C@H](O)[C@H]8O)[C@H](O)[C@H]7O)nn6)cc5)c5ccc(OCc6cn([C@@H]7O[C@H](CO)[C@@H](O[C@@H]8O[C@H](CO)[C@H](O)[C@H](O)[C@H]8O)[C@H](O)[C@H]7O)nn6)cc5)c5ccc(OCc6cn([C@@H]7O[C@H](CO)[C@@H](O[C@@H]8O[C@H](CO)[C@H](O)[C@H](O)[C@H]8O)[C@H](O)[C@H]7O)nn6)cc5)cc4)nn3)O[C@@H]2CO)[C@H](O)[C@@H](O)[C@H]1O [compound 2] | Signal for binding of Gal-3 was strongly reduced in cells of the villi | extent of binding of the Gal-3–Gal-3 homodimer was less potently reduced |  |  |  |  |  |  |  |  | 
CC(=O)N[C@H]1C(O)O[C@H](CO)[C@H](O)[C@@H]1O[C@@H]1O[C@H](CO)[C@H](O)[C@H](O)[C@H]1O (some centres unmarked) [Galβ1,3GalNAc] |  |  | 264 ± 13.7 µM | 222 ± 18.5 µM | 157 ± 4.69 µM | 288 ± 3.01 µM |  |  |  |  | 
CC(=O)N[C@H]1C(O)O[C@H](CO)[C@@H](O[C@@H]2O[C@H](CO)[C@H](O)[C@H](O)[C@H]2O)[C@@H]1O (some centres unmarked) [LacNAc] |  |  | 45.6 ± 1.64 µM | 37.5 ± 0.48 µM | 29.4 ± 0.92 µM |  | 59 ± 1.45 µM | 49.7 ± 0.95 µM | 60 ± 1.1 µM | 36.2 ± 0.78 µM | 48 ± 1.71 µM
